Measurements from patent publication US3946040A, “Propynyl benzyl ethers” (Hoffmann-La Roche Inc., priority 1973, dated 1976).

Tests used:
Assay type in all cases: in vivo
[1] = system: black bean aphids; assay: Aphids: seedling of the field bean with black bean aphids sprayed; dead and surviving aphids counted; settings: stated logarithmically (3 = 10^^-3 g/cm^3); for LD50 concentration based on insect-poison: I:P 100:0; for LD50 concentration (refers to the propynyl benzyl ether itself): I:P 0:100, ether alone
Experimental: For each test, one seedling of the field bean with ca 50-100 black bean aphids is sprayed with a solution of the active ingredient(s) in acetone or an aqueous spray-wash of the active ingredient(s). The seedlings are individually placed in tubes in water. After 24 and 48 hours, the dead and surviving aphids are counted and the activity calculated in %.

[2] = system: flies; assay: Flies: placed in sprayed petri dishes; dead or crippled flies counted; settings: after 24 hours, stated logarithmically (3 = 10^^-3 g/cm^3); for LD50 concentration based on insect-poison: I:P 100:0
Experimental: For each test, two petri dishes are sprayed with a solution of the active ingredient(s) in acetone or an aqueous spray-wash of the active ingredient(s). The dosage for each treated surface is 10^^-5 g/cm^2 = 1 kg/ha. After 2-3 hours, 10 flies aged 4-5 days are placed in each petri dish. After 1, 3 and 24 hours, the flies which are dead or crippled are counted.

[3] = system: spider-mites; assay: Spider-mites on sprayed leaf discs, assessment based on the mortality of the spider-mites (W); settings: stated logarithmically (3 = 10^^-3 g/cm^3); for LD50 concentration based on insect-poison (W, mortality of the spider-mites): I:P 100:0; for LD50 concentration (W, mortality of the spider-mites; refers to the propynyl benzyl ether itself): I:P 0:100, ether alone
Experimental: (§1) For each test, three beam leaf discs each with a 2-day infection and with 20-40 spider-mites and eggs are sprayed with a solution of the active ingredient(s) in acetone or an aqueous spray-wash of the active ingredient(s). The dosage for each treated surface is 10^^-5 g/cm^2 = 1 kg/ha. After 2 days, the discs are assessed for dead spider-mites and after 6 days for dead spider-mites and killed eggs. (Assessment scheme: from 0-5, where 0 = 0% and 5 = 100% mortality).
W = assessment based on the mortality of the spider-mites;

[4] = system: spider-mite eggs; assay: Spider-mites on sprayed leaf discs, assessment based on the mortality of the eggs (O); settings: stated logarithmically (3 = 10^^-3 g/cm^3), 8640 min; for LD50 concentration (O, mortality of the eggs; refers to the propynyl benzyl ether itself): I:P 0:100, ether alone
Experimental: as §1
O = assessment based on the mortality of the eggs.

[5] = Malathion group, I:P 0:100, ether alone
[6] = Methoxychlor group, I:P 0:100, ether alone
[7] = Sevin group, I:P 0:100, ether alone

CCOC(=O)CC(SP(=S)(OC)OC)C(=O)OCC (stereo not drawn) [Malathion, S-[1,2-bis-(carbethoxy)-ethyl]-0,0-dimethyl-dithiophosphate, reference compound]
LD50 concentration based on insect-poison ([1]; Malathion alone): 5.1
LD50 concentration based on insect-poison ([2]; Malathion alone): 5.1
LD50 concentration based on insect-poison (W, mortality of the spider-mites) ([3]; Malathion alone): < 4

C=CCC1=C(C)C(OC(=O)C2C(C=C(C)C)C2(C)C)CC1=O (mixture of isomers) [Allethrin, 2-allyl-4-hydroxy-3-methyl-2-cyclopenten-1-one esterified with a mixture of cis and trans 2,2-dimethyl-3-(2-methylpropenyl)-cyclopropanecarboxylic acid, reference compound]
LD50 concentration based on insect-poison ([1]; Allethrin alone): 5.0
LD50 concentration based on insect-poison ([2]; Allethrin alone): 5.5
LD50 concentration based on insect-poison (W, mortality of the spider-mites) ([3]; Allethrin alone): 3.4
LD50 concentration based on insect-poison (O, mortality of the eggs) ([4]; Allethrin alone, I:P 100:0): < 3

C#CCOCc1ccc(OC)c(OC)c1 [B, 3,4-dimethoxy-α-(2-propynyloxy)-toluene]
LD50 concentration (refers to the propynyl benzyl ether itself) ([1]; Allethrin group): 3.0
LD50 concentration (refers to the propynyl benzyl ether itself) ([1]; Malathion group): 3.3
LD50 concentration (refers to the propynyl benzyl ether itself) ([1]; Methoxychlor group): 3.3
LD50 concentration (refers to the propynyl benzyl ether itself) ([2]; Allethrin group, I:P printed 0:10, ether alone): 3.3
LD50 concentration (refers to the propynyl benzyl ether itself) [2, 5]: 3.3
LD50 concentration (refers to the propynyl benzyl ether itself) [2, 6]: 3.3
LD50 concentration (refers to the propynyl benzyl ether itself) [2, 7]: 3.5
LD50 concentration (W, mortality of the spider-mites; refers to the propynyl benzyl ether itself) ([3]; Allethrin group): 3.0
LD50 concentration (W, mortality of the spider-mites; refers to the propynyl benzyl ether itself) ([3]; Malathion group): 3.0
LD50 concentration (W, mortality of the spider-mites; refers to the propynyl benzyl ether itself) ([3]; Methoxychlor group): 3.0
LD50 concentration (W, mortality of the spider-mites; refers to the propynyl benzyl ether itself) ([3]; Sevin group): 3.0
LD50 concentration (O, mortality of the eggs; refers to the propynyl benzyl ether itself) ([4]; Allethrin group): 2.7
LD50 concentration (O, mortality of the eggs; refers to the propynyl benzyl ether itself) ([4]; Methoxychlor group): 2.7
LD50 concentration (O, mortality of the eggs; refers to the propynyl benzyl ether itself) ([4]; Sevin group): 2.7

C#CCOCc1ccc2c(c1)OCO2 [A, 3,4-(methylenedioxy)-α-(2-propynyloxy)-toluene]
LD50 concentration (refers to the propynyl benzyl ether itself) ([1]; Allethrin group): 3.0
LD50 concentration (refers to the propynyl benzyl ether itself) ([1]; Methoxychlor group): 3.0
LD50 concentration (refers to the propynyl benzyl ether itself) [2, 5]: > 3.5
LD50 concentration (refers to the propynyl benzyl ether itself) [2, 6]: > 3.5
LD50 concentration (refers to the propynyl benzyl ether itself) [2, 7]: 3.5
LD50 concentration (W, mortality of the spider-mites; refers to the propynyl benzyl ether itself) ([3]; Sevin group): < 2
